Measurements: ChEMBL document CHEMBL1201862, “PubChem BioAssay data set” (2004)
The source made the active and inactive calls. No stated cut-off is given here; in the data, active = IC50 of 10 µM or less and inactive = more.

Tests used:
[1] = target: Melanin-concentrating hormone receptor 1 (Homo sapiens, UniProt Q99705); assay: Late-stage fluorescence-based counterscreen for antagonists of the G-protein coupled receptor 7 (GPR7): cell-based dose response assay to identify antagonists of the melanin-concentrating hormone receptor 1 (MCHR1) Set 6.; format: functional
Sequence of Melanin-concentrating hormone receptor 1 (Q99705 whole entry): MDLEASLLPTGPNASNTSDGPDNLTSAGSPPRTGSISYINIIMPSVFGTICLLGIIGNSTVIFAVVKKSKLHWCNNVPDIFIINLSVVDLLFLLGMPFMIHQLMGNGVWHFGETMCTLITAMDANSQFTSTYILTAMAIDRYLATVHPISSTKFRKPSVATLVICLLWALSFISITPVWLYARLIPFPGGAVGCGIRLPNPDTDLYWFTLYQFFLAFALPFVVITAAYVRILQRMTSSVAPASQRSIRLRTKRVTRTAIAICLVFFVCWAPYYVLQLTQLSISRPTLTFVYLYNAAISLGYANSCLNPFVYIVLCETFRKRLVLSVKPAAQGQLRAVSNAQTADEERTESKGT

[2] = target: T1, Neuropeptides B/W receptor type 1 (Homo sapiens, UniProt P48145); assay: human NPBW1 receptor blockade, IC50 – cell-based, fluorescence, dose response, set 6, late-stage follow-up (AID 588583); format: functional
T1 sequence (P48145 whole entry): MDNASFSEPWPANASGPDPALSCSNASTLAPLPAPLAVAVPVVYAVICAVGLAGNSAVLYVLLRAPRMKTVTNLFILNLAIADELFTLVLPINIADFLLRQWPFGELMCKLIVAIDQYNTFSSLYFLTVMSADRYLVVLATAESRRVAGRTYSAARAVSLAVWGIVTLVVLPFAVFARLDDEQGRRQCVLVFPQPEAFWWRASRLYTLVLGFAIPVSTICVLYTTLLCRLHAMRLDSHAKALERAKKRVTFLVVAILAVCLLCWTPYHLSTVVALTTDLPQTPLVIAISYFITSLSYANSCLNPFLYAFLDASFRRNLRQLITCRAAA

IC50 [1]: > 20 µM (inactive)
IC50 [2]: > 20 µM (inactive)
SMILES: N#CC(c1ccccc1)c1c(S)cnn(Cc2cccc3ccccc23)c1=O (configuration not stated)
